Holding throughout (type): binding, mouse
Experiment [1] has as its system polyclonal antibodies to imatinib (Example 8a). In words: Indirect competitive microtiter plate immunoassay (ELISA), cross-reactivity with polyclonal antibodies to imatinib. The conditions noted are these: for Cross-reactivity of competitive immunoassay: ratio of IC50 imatinib to IC50 analyte. On the technique in general: ELISA stands for enzyme-linked immunosorbent assay.

The test system of experiment [2] is selected monoclonal antibodies to imatinib (Example 8b). In words: Indirect competitive microtiter plate immunoassay (ELISA), cross-reactivity with selected monoclonal antibodies. The conditions noted are these: measured with selected monoclonal antibodies. The method, then: Mice from example 8a that were immunized with imatinib-KLH prepared in 6b were used to produce monoclonal antibodies. For monoclonal antibodies starting three days before the fusion, the mice were injected i.p. with 400 μg (3 days before fusion), 200 μg (2 days before fusion), and 200 μg (1 day before fusion) of imatinib-KLH in PSS/DMSO prepared in example 6b. Spleen cells were isolated from the selected mice and fused with 2×10^7 SP2/0 cells with 50% polyethylene glycol 1500 according to the method of Coligan, J. E. et al., eds., Current Protocols in Immunology, 2.5.1-2.5.8, (1992), Wiley & Sons, NY. The fused cells were plated on ten 96-well plates in DMEM/F12 supplemented with 20% FetalClone I, 2% L-glutamine (100 mM) and 2% 50× HAT. Two to three weeks later, the hybridoma supernatant was assayed for the presence of anti-imatinib antibodies by ELISA (as in example fob). Cells from the wells that gave positive ELISA results (example lob) were expanded to 24 well plates. Clones positive by ELISA were subcloned twice by limiting dilution according to the method disclosed in Coligan, J. E. et al., eds., Current Protocols in Immunology, 2.5.8-2.5.17, (1992), Wiley & Sons, NY. Hybridoma culture supernatants containing monoclonal antibody from selected subclones were confirmed for imatinib binding by a competitive ELISA (example 11). […]

Experiment [3] deals with monoclonal antibody 9F2-4-31 to imatinib. In words: Indirect competitive microtiter plate immunoassay (ELISA), cross-reactivity with monoclonal antibody 9F2-4-31. The following applies: monoclonal antibody number 9F2-4-31; ratio of IC50 imatinib to IC50 analyte. As to the method:
(§1) Mice from example 8a that were immunized with imatinib-KLH prepared in 6b were used to produce monoclonal antibodies. For monoclonal antibodies starting three days before the fusion, the mice were injected i.p. with 400 μg (3 days before fusion), 200 μg (2 days before fusion), and 200 μg (1 day before fusion) of imatinib-KLH in PSS/DMSO prepared in example 6b. Spleen cells were isolated from the selected mice and fused with 2×10^7 SP2/0 cells with 50% polyethylene glycol 1500 according to the method of Coligan, J. E. et al., eds., Current Protocols in Immunology, 2.5.1-2.5.8, (1992), Wiley & Sons, NY. The fused cells were plated on ten 96-well plates in DMEM/F12 supplemented with 20% FetalClone I, 2% L-glutamine (100 mM) and 2% 50× HAT. Two to three weeks later, the hybridoma supernatant was assayed for the presence of anti-imatinib antibodies by ELISA (as in example fob). […] Clones positive by ELISA were subcloned twice by limiting dilution according to the method disclosed in Coligan, J. E. et al., eds., Current Protocols in Immunology, 2.5.8-2.5.17, (1992), Wiley & Sons, NY. […] These monoclonal antibodies were tested for imatinib binding and cross-reactivity to a major imatinib metabolite, N-desmethyl imatinib, by indirect competitive microtiter plate assay as described in example 11. […]

For another experiment, the system named is antibodies to imatinib. The experiment in a line: Immunoassay reactivity of the antibodies produced in accordance with the invention (polyclonal and monoclonal). The following applies: summary of Tables I and II.
In experiment [4] the test system is monoclonal antibody 9F2-4-29 to imatinib. In words: Indirect competitive microtiter plate immunoassay (ELISA), cross-reactivity with monoclonal antibody 9F2-4-29. The following applies: monoclonal antibody number 9F2-4-29; ratio of IC50 imatinib to IC50 analyte. The method, then:
as §1

The mark [5] stands for this setting: polyclonal Bleed # 1, immunogen of example 6b.
Setting [6] is: polyclonal Bleed # 2, immunogen of example 6b.
Setting [7] is: polyclonal Bleed # 3, immunogen of example 6b.
[8] abbreviates: polyclonal Bleed # 4, immunogen of example 6a.
Where [9] appears, read: polyclonal Bleed # 5, immunogen of example 6a.

This is an account of results in patent publication US8263749B2, “Imatinib immunoassay” (Saladax Biomedical Inc., priority 2009, dated 2012).

The structures appear in SMILES notation.

For the compound `Cc1ccc(NC(=O)c2ccc(CN3CCNCC3)cc2)cc1Nc1nccc(-c2cccnc2)n1` [N-desmethyl imatinib], the “percent cross-reactivities relative to imatinib” value in experiment [1] (measured with this pool of (polyclonal) antibodies) is “less than or equal to 7%”; in experiment [2], “less than 4%”. In addition, the “Cross-reactivity of competitive immunoassay” value (shortened to “Cross-reactivity”) in experiment [1] (setting [5]) came out at 1%; in experiment [1] (setting [6]), 5%; in experiment [1] (setting [7]), 2%; in experiment [1] (setting [8]), 7%; in experiment [1] (setting [9]) it was 1%; in experiment [3], 3.2%. The “Cross-reactivity” value in experiment [4] came out at 2.7%. For the same compound, the “reactivity with the antibodies” value in the experiment on antibodies to imatinib is “substantially non-reactive”.
Consider `Cc1ccc(NC(=O)c2ccc(CN3CCN(C)CC3)cc2)cc1Nc1nccc(-c2cccnc2)n1` [Imatinib], for which the “Cross-reactivity” value in experiment [1] (setting [5]), in experiment [1] (setting [6]), in experiment [1] (setting [7]), in experiment [1] (setting [8]), in experiment [1] (setting [9]) and in experiment [3] was 100% in each case. For the same compound, the “Cross-reactivity” value in experiment [4] is reported as 100%.
